ChEMBL document CHEMBL1150823, “Two bioactive saponins from Albizia subdimidiata from the Suriname rainforest” (J Nat Prod, 2001)
In brackets after ≈: the same amount, converted by molar mass.

Key:
Saccharomyces cerevisiae [1] = experiment: DNA damaging activity against Saccharomyces cerevisiae Sc7 assessed as concentration required to produce 12 mm zone of inhibition; assay type: functional
Saccharomyces cerevisiae [2] = experiment: DNA damaging activity against Saccharomyces cerevisiae 1138 assessed as concentration required to produce 12 mm zone of inhibition; assay type: functional
Saccharomyces cerevisiae [3] = experiment: DNA damaging activity against Saccharomyces cerevisiae 1140 assessed as concentration required to produce 12 mm zone of inhibition; assay type: functional
Saccharomyces cerevisiae [4] = experiment: DNA damaging activity against Saccharomyces cerevisiae 1353 assessed as concentration required to produce 12 mm zone of inhibition; assay type: functional
A2780 = experiment: Cytotoxicity against human A2780 cells; assay type: functional, cell-based

SMILES | Activity (Saccharomyces cerevisiae [1]) | Activity (Saccharomyces cerevisiae [2]) | Activity (Saccharomyces cerevisiae [3]) | Activity (Saccharomyces cerevisiae [4]) | IC50 (A2780)
CC(=O)N[C@H]1[C@H](O[C@H]2CC[C@]3(C)[C@H]4CC=C5[C@@H]6CC(C)(C)CC[C@]6(C(=O)O)CC[C@@]5(C)[C@]4(C)CC[C@H]3C2(C)C)O[C@H](CO[C@@H]2OC[C@H](O)[C@H](O)[C@H]2O[C@@H]2OC[C@@H](O)[C@H](O)[C@H]2O)[C@@H](O)[C@@H]1O [ALBIZIATRIOSIDE A] | 30 µg/mL | 30 µg/mL | 35 µg/mL | 35 µg/mL | 0.9 µg/mL (≈ 0.974 µM)
CC(=O)N[C@H]1[C@H](O[C@H]2CC[C@]3(C)[C@H]4CC=C5[C@@H]6CC(C)(C)CC[C@]6(C(=O)O)CC[C@@]5(C)[C@]4(C)CC[C@H]3C2(C)C)O[C@H](CO[C@@H]2OC[C@H](O)[C@H](O)[C@H]2O[C@@H]2OC[C@H](O)[C@H](O)[C@H]2O)[C@@H](O)[C@@H]1O | 45 µg/mL | 25 µg/mL | 40 µg/mL | 30 µg/mL | 0.8 µg/mL (≈ 0.866 µM)
